Here are results for 2 compounds from US7601834B2, “Compositions and methods of reducing side effects and toxicity of methotrexate when given as orotate derivatives” (SavviPharm Inc, priority 2005, dated 2009).

A short description of data set [1]: Pharmacokinetic analysis and oral bioavailability in rats. The class given is in vivo, male Spagrue-Dawley rats. Conditions: rat; for half-life: read-out: Elim Half-Life (converted); for AUC: estimated for infinity. As for the experimental part:
A PK study was done in rats to determine the PK profile and oral bioavailability of methotrexate and compared this to the orotate salt of methotrexate. This was done in male Spagrue-Dawley rats. This compound was administered intravenously (IV; 10 mg/kg; for methotrexate and 15.7 mg/kg for methotrexate orotate 1 mL/kg; vehicle 1% NaHCO3 in 0.9% saline) or via oral gavage (PO; 100 mg/kg methotrexate; 157 mg/kg methotrexate orotate; vehicle 1% NaHCO3 in 0.9% saline) and the plasma levels of compound in the plasma were determined at specified times. By calculating the ratio of the area under the curve for the compound concentrations (estimated for infinity as is typically done) for PO vs IV, percent oral bioavailability can be determined. Of course normalization for the different doses given IV vs PO was taken into account for determination of oral bioavailability.

Data set [2] deals with DU-145 human prostate tumor xenografts.
Experimental: The purpose of the experiment was to evaluate the antitumor efficacy of methotrexate (MTX) and its orotate derivative (MTX orotate) against subcutaneously (SC) implanted DU=145 human prostate tumor xenografts in male athymic NCr-nu/nu mice.
Drug formulation—2.7 mg/mL solution of MTX (Sigma-Aldrich, catalog no. M9929, lot no. 114K1572 used on days 15 and 19, and catalog no. A6770, lot no. 21H0324 used on days 19, 23 and 35) was formulated fresh on each day of treatment in 2% sodium bicarbonate in water for injection (WFI). The 2.7 mg/mL solution was diluted with sodium bicarbonate in WFI to 1.8 and 1.2 mg/mL.
A 4.25 mg/mL solution of MTX orotate was formulated fresh on each day of treatment in 2% bicarbonate in WFI to 2.83 and 1.89 mg/mL. Control group was treated with 2% sodium bicarbonate in WFI. Both compounds and the vehicle were administered to mice by exact individual animal's body weight on each day of treatment with the injection volume being 0.1 mL/10 g of body weight.
Seven groups of 10 mice per group were injected intraperitoneally (ip) once every four days for a total of 3 injections (q4d×3, Days 15, 19, 23 and 35) as follows: Group 1—2% sodium bicarbonate, Groups 2, 3 and 4 with MTX at 27, 18, and 12 mg/kg/dose, respectively. Groups 5, 6, and 7 were treated with MTX orotate at dosages 42.5, 28.3 and 18.9 mg/kg/dose respectively (based on MW of MTX=454.4 and MW of MTX orotate=714.7).
Tumors were measured and volume determined using formula L×W^2/2=mm^3; and weight calculated assuming 1 mm^3=1 mg. The study was terminated 47 days after tumor implantation
For data set [3] the following is noted: in vivo; cited from earlier work.
[4] abbreviates: male, Sprague-Dawley, plasma, IV, 10 mg/kg methotrexate.
Where [5] appears, read: male, Sprague-Dawley, plasma, PO, 100 mg/kg methotrexate.
The mark [6] stands for this setting: IV, 15.7 mg/kg methotrexate orotate.
Where [7] appears, read: PO, 157 mg/kg methotrexate orotate.

Where two headings read alike, the source gives them in different places.

Regarding `CN(Cc1cnc2nc(N)nc(N)c2n1)c1ccc(C(=O)N[C@@H](CCC(=O)O)C(=O)O)cc1` [Methotrexate, methotrexate], in data set [1] (setting [4]), the concentration peaked (Cmax) at 3780 ± 636 ng/mL; the clearance is 157 mL/min/kg; the half-life (as a rule, the time needed for the level to fall by half in the phase considered) was 26.4 ± 0.6 min. Further, the Tmax – broadly, the time at which the peak concentration occurs – in data set [1] (male, Sprague-Dawley, plasma, IV, 10 mg/kg methotrexate, read-out: Tmax) came to 6 min. For the same compound, in data set [1] (male, Sprague-Dawley, plasma, IV, 10 mg/kg methotrexate, read-out: Vd), the Vd came out at 6.12 ± 0.671 L/kg. Also, the bioavailability (commonly the share of a dose that reaches the circulation, judged against a reference dose that is usually intravenous) in data set [1] (male, Sprague-Dawley, plasma, PO 100 mg/kg vs IV 10 mg/kg methotrexate, dose-normalized AUC ratio) came out at 6%. Further, in data set [1] (setting [5]), the Cmax (in general, the maximum level reached in the sampled fluid or tissue) was determined as 51 ± 12 ng/mL and the half-life is 1880 ± 924 min. Besides, the Tmax in data set [1] (male, Sprague-Dawley, plasma, PO, 100 mg/kg methotrexate, read-out: Tmax) was found to be 54 ± 36 min. Further, the AUC in data set [1] (IV, 10 mg/kg methotrexate) was 1151 ± 142 ng·mL·h. Further, in data set [1] (PO, 100 mg/kg methotrexate), the Cl came out at 2537.12 ± 257.27 mL/min/kg, the Vd is 6811.662 ± 3415.946 L/kg and the AUC is 671 ± 70 ng·mL·h. Moreover, the “Tumor weight - tumor inhibition” value in data set [2] (MTX 27, 18 and 12 mg/kg/dose ip q4d, SC DU-145 xenografts) is “no effect”. For the same compound, in data set [3], the “Bound to plasma proteins” value is “approximately 50%” and the “Elimination from plasma, gamma half life” value is 1620 min.
`CN(Cc1cnc2nc(N)nc(N)c2n1)c1ccc(C(=O)NC(CCC(=O)O)C(=O)[O-])cc1.O=C(O)c1cc(=O)[nH]c(=O)[nH]1.[Na+]` (stereo not drawn) [Methotrexate Orotate, sodium methotrexate orotate]: in data set [1] (IV), the “Apparent volume of distribution and plasma clearance rate relative to methotrexate” value is given as “higher”; the “Area under the curve (AUC) relative to methotrexate” value is recorded as “slightly lower”. In data set [1] (setting [6]), the Cl was 263.08 ± 17.08 mL/min/kg, the Cmax plasma turned out to be 2843 ± 121 ng/mL, the “Elim Half-Life” value was found to be 28.2 ± 0 min and the Tmax was 6 ± 0 min. Further, in data set [1] (setting [6]), the Vd amounted to 10.804 ± 0.733 L/kg and the AUC is 792 ± 62 ng·mL·h. Also, in data set [1] (PO), the “Elimination half-life relative to methotrexate” value was “shorter” and the “Rate of getting into the plasma relative to methotrexate” value was “somewhat slower”. Also, in data set [1] (PO 157 mg/kg vs IV 15.7 mg/kg methotrexate orotate, dose-normalized AUC ratio), the “% bioavailability (oral)” value is recorded as 14%. In data set [1] (setting [7]), the Cl is 3233.05 ± 518.18 mL/min/kg, the Cmax plasma was 59 ± 20 ng/mL, the “Elim Half-Life” value came out at 1060 ± 480 min and the Tmax worked out at 96 ± 24 min. Also, in data set [1] (setting [7]), the Vd was 3345.18 ± 472.947 L/kg and the AUC was 1140 ± 390 ng·mL·h. Also, the “Tumor weight - inhibition of growth of DU-145 xenografts” value in data set [2] (MTX orotate highest dose (42.5 mg/kg/dose) ip q4d) is listed as “marginal inhibition”. The “Tumor weight - tumor inhibition” value in data set [2] (MTX orotate two low doses (28.3 and 18.9 mg/kg/dose) ip q4d, SC DU-145 xenografts) is reported as “no effect”. For the same compound, the “Tumor growth compared with MTX” value in data set [2] (ip, equivalent dosages, SC DU-145 xenografts) was “no significant difference”.
